Assay results from US20240327334A1, “Covalent Inhibitors As Antiviral Agents” (Enanta Pharmaceuticals, Inc., priority 2022, published 2024).

Molecular target: SARS-CoV-2 Papain-like (PLpro) protease (Severe acute respiratory syndrome coronavirus 2, UniProt P0DTD1)
Test: SARS-CoV-2 Papain-like (PLpro) protease biochemical enzyme inhibition assay (ubiquitin-fluorophore substrate, Ub-R110)
Conditions: not given

C[Si](C)(C)C#CCNC(=O)C(=O)NCc1ccccc1C(=O)NC1(c2ccc3ccccc3c2)CC1 [Example 202] was tested, and the IC50 was > 10000 nM.

Same assay, conditions: Ub-R110 substrate; run in duplicate; read-out: PLpro IC50

CC(C)[C@@H](C#Cc1ccccn1)NC(=O)C(=O)NCc1ccccc1C(=O)NC1(c2ccc3nn(C)cc3c2)CC1 [Example 204] and C#C[C@@H](NC(=O)C(=O)NCc1ccccc1C(=O)NC1(c2ccc3nn(C)cc3c2)CC1)C(C)C [Example 91] cannot be ordered by IC50: > 10000 nM for the first, > 10000 nM for the second.

C[C@@H](C#Cc1nccs1)NC(=O)C(=O)NCc1ccccc1C(=O)NC1(c2cccc3c2ccn3C)CC1 [Example 531] and O=C(NCC#Cc1nccs1)C(=O)NCc1ccccc1C(=O)NC1(c2cccc3nc(C4CC4)ccc23)CC1 [Example 390] cannot be ordered by IC50: < 100 nM for the first, < 100 nM for the second.

CC#CCNC(=O)C(=O)NCc1ccccc1C(=O)NC1(c2cccc3ccccc23)CC1 [Example 150] and N#CCCCNC(=O)C(=O)NCc1ccccc1C(=O)NC1(c2cccc3ccccc23)CC1 [Example 412] fall in the same range of IC50: 1000 to 10000 nM for the first, 1000 to 10000 nM for the second.

Going from CC(C)(O)/C=C/c1cc(C2(NC(=O)c3ccccc3CNC(=O)C(=O)NCC#N)CC2)c2ccccc2c1 [Example 422] to N#CCNC(=O)C(=O)NCc1ccccc1C(=O)NC1(c2cccc3ccccc23)COC1 [Example 96], the IC50 rises from < 100 nM to > 10000 nM. The first is the more potent here.

NC(=O)N1CCC[C@H]1CNC(=O)C(=O)NCc1ccccc1C(=O)NC1(c2cccc3ccccc23)CC1 [Example 505] and NC(=O)N1CC[C@H]1CNC(=O)C(=O)NCc1ccccc1C(=O)NC1(c2cccc3ccccc23)CC1 [Example 501] fall in the same range of IC50: 1000 to 10000 nM for the first, 1000 to 10000 nM for the second.

N#CCNC(=O)C(=O)NCc1ccccc1C(=O)NC1(c2ccnc3c2ccn3C2CC2)CC1 [Example 406] and N#CCNC(=O)C(=O)NCc1ccccc1C(=O)NC1(c2ccc3nc(C4CC4)ccc3c2)CC1 [Example 400] cannot be ordered by IC50: < 100 nM for the first, < 100 nM for the second.

O=C(NCC#Cc1ccc(F)cc1)C(=O)NCc1ccccc1C(=O)NC1(c2ccc3ccccc3c2)CC1 [Example 76] and O=C(NCC#Cc1cc(F)cc(F)c1)C(=O)NCc1ccccc1C(=O)NC1(c2ccc3ccccc3c2)CC1 [Example 75] cannot be ordered by IC50: > 10000 nM for the first, > 10000 nM for the second.

CC(NC(=O)C(=O)NCC#N)c1ccccc1C(=O)N[C@H](C)c1cccc2ccccc12 (some centres unmarked) [Example 50] and COC(=O)/C=C/CCNC(=O)C(=O)NC(C)c1ccccc1C(=O)N[C@H](C)c1cccc2ccccc12 (some centres unmarked) [Example 51] cannot be ordered by IC50: > 10000 nM for the first, > 10000 nM for the second.

First: COC(=O)/C=C/CN(C)C(=O)C(=O)NCc1ccccc1C(=O)N[C@H](C)c1cccc2ccccc12 [Example 546]
Second: COC(=O)/C=C/C1(NC(=O)C(=O)NCc2ccccc2C(=O)N[C@H](C)c2cccc3ccccc23)CC1 [Example 36]
The IC50 of the first is lower: 1000 to 10000 nM for the first, > 10000 nM for the second.

First: O=C(NCC#Cc1ccc(C(F)(F)F)s1)C(=O)NCc1ccccc1C(=O)NC1(c2ccc3ccccc3c2)CC1 [Example 89]
Second: N#Cc1ccc(C#CCNC(=O)C(=O)NCc2ccccc2C(=O)NC2(c3ccc4ccccc4c3)CC2)c(C(F)(F)F)c1 [Example 95]
The IC50 of the first is higher: > 10000 nM for the first, 100 to 1000 nM for the second.

First: N#CCNC(=O)C(=O)NCCc1ccccc1C(=O)NC1(c2ccc3ccccc3c2)CC1 [Example 372]
Second: N#CCCCNC(=O)C(=O)NCc1ccccc1C(=O)NC1(c2ccc3ccccc3c2)CC1 [Example 403]
The IC50 of the first is higher: > 10000 nM for the first, 1000 to 10000 nM for the second.

C[C@@H](NC(=O)c1ccccc1CNC(=O)C(=O)NC/C=C/C(=O)O)c1cccc2ccccc12 [Example 14] and C[C@@H](NC(=O)c1ccccc1CNC(=O)C(=O)NC/C=C/C(=O)NC(C)(C)CO)c1cccc2ccccc12 [Example 551] fall in the same range of IC50: 1000 to 10000 nM for the first, 1000 to 10000 nM for the second.

C#CCNC(=O)C(=O)NCc1ccccc1C(=O)NC1(c2cccc3ncccc23)CC1 [Example 374] and C#CCNC(=O)C(=O)NCc1ccccc1C(=O)NC1(c2ccc3ncccc3c2)CC1 [Example 388] cannot be ordered by IC50: < 100 nM for the first, < 100 nM for the second.

First: C#CCNC(=O)C(=O)NCc1ccccc1C(=O)NC1(c2cccc3ccccc23)COC1 [Example 102]
Second: N#CN1CC[C@H](CNC(=O)C(=O)NCc2ccccc2C(=O)NC2(c3cccc4ccccc34)CC2)C1 [Example 502]
The IC50 of the first is higher: > 10000 nM for the first, 100 to 1000 nM for the second. The second is the more potent here.

First: O=C(NC/C=C/c1nccs1)C(=O)NCc1ccccc1C(=O)NC1(c2ccc3ccccc3c2)CC1 [Example 583]
Second: O=C(NC/C=C\c1nccs1)C(=O)NCc1ccccc1C(=O)NC1(c2ccc3ccccc3c2)CC1 [Example 401]
The IC50 of the first is lower: 100 to 1000 nM for the first, 1000 to 10000 nM for the second.

C[C@@H](NC(=O)c1ocnc1CNC(=O)C(=O)NCC#N)c1cccc2ccccc12 [Example 365] and C[C@@H](NC(=O)c1ccccc1CNC(=O)C(=O)NCCC#N)c1cccc2ccccc12 [Example 5] cannot be ordered by IC50: > 10000 nM for the first, > 10000 nM for the second.

C#CCNC(=O)C(=O)NCc1ccccc1C(=O)NC1(c2cc(Oc3ccccc3)cc(C(F)(F)F)c2)CC1 [Example 67] and N#CCNC(=O)C(=O)NCc1ccccc1C(=O)NC1(c2cc(Oc3ccccc3)cc(C(F)(F)F)c2)CC1 [Example 68] cannot be ordered by IC50: > 10000 nM for the first, > 10000 nM for the second.

First: C#C[C@H](C)NC(=O)C(=O)NCc1ccccc1C(=O)NC1(c2ccc3ccccc3c2)CC1 [Example 164]
Second: O=C(NCC#CC1CC1)C(=O)NCc1ccccc1C(=O)NC1(c2ccc3ccccc3c2)CC1 [Example 523]
The IC50 of the first is lower: 1000 to 10000 nM for the first, > 10000 nM for the second.

C#CCNC(=O)C(=O)NCc1ccccc1C(=O)NC1(c2cc(-c3c(C)nn(C)c3C)ccc2Cl)CC1 [Example 395] and N#CCNC(=O)C(=O)NCc1ccccc1C(=O)NC1(c2cc(C(F)(F)F)ccc2Cl)CC1 [Example 377] fall in the same range of IC50: 100 to 1000 nM for the first, 100 to 1000 nM for the second.

First: COC(=O)/C=C/CNC(=O)C(=O)NCCc1ccccc1C(=O)N[C@H](C)c1cccc2ccccc12 [Example 37]
Second: COC(=O)/C=C/CCNC(=O)C(=O)Nc1ccccc1C(=O)N[C@H](C)c1cccc2ccccc12 [Example 10]
The IC50 of the first is lower: 100 to 1000 nM for the first, > 10000 nM for the second.

First: C[C@@H](NC(=O)c1ccccc1CNC(=O)C(=O)NC/C=C/C(=O)N1CC[C@H](C#N)C1)c1cccc2ccccc12 [Example 550]
Second: COCC(C)(C)NC(=O)/C=C/CNC(=O)C(=O)NCc1ccccc1C(=O)N[C@H](C)c1cccc2ccccc12 [Example 565]
The IC50 of the first is higher: > 10000 nM for the first, 1000 to 10000 nM for the second. The second is the more potent here.

CC(C)Oc1cccnc1C#C[C@H](C)NC(=O)C(=O)NCc1ccccc1C(=O)NC1(c2cc(F)cc(-c3cnn(C4CC4)c3)c2)CC1 [Example 268] and COc1cc(C2(NC(=O)c3ccccc3CNC(=O)C(=O)NC/C=C/c3ccccn3)CC2)cc2cn(C3CC3)nc12 [Example 581] fall in the same range of IC50: 100 to 1000 nM for the first, 100 to 1000 nM for the second.

N#CCNC(=O)C(=O)NCc1ccccc1C(=O)NC1(c2ccc(Br)cc2)CC1 [Example 544] and N#CCNC(=O)C(=O)NCc1ccccc1C(=O)NC1(c2ccc(F)c(OC(F)(F)F)c2)CC1 [Example 309] fall in the same range of IC50: 1000 to 10000 nM for the first, 1000 to 10000 nM for the second.

O=C(C#CCNC(=O)C(=O)NCc1ccccc1C(=O)NC1(c2cc(-c3cnn(C4CC4)c3)cc(C(F)(F)F)c2)CC1)NC1CC1 [Example 534] and C#CCNC(=O)C(=O)NCc1ccccc1C(=O)NC1(c2cc(-c3c(C)cnn3C)cc(C(F)(F)F)c2)CC1 [Example 475] fall in the same range of IC50: 100 to 1000 nM for the first, 100 to 1000 nM for the second.

N#CCNC(=O)C(=O)NCc1ccccc1C(=O)NC1(c2cc(Oc3cccc(C(F)(F)F)c3)cc(C(F)(F)F)c2)CC1 [Example 66] and C#CCNC(=O)C(=O)NCc1ccccc1C(=O)NC1(c2cc(Oc3cccc(C(F)(F)F)c3)cc(C(F)(F)F)c2)CC1 [Example 65] cannot be ordered by IC50: > 10000 nM for the first, > 10000 nM for the second.

C[C@@H](NC(=O)c1ccccc1CNC(=O)C(=O)N1CCC(=O)N1)c1cccc2ccccc12 [Example 23] and N#C[C@H]1CCCN1C(=O)C(=O)NCc1ccccc1C(=O)NC1(c2cccc3ccccc23)CC1 [Example 118] cannot be ordered by IC50: > 10000 nM for the first, > 10000 nM for the second.

First: N#CCCOC(=O)NCc1ccccc1C(=O)NC1(c2cc(Br)cc3ccccc23)CC1 [Example 420]
Second: N#CN1CCC[C@H]1CC(=O)NCc1ccccc1C(=O)NC1(c2cc(Br)cc3ccccc23)CC1 [Example 316]
The IC50 of the first is higher: 1000 to 10000 nM for the first, 100 to 1000 nM for the second. The second is the more potent here.

First: COc1cc(C2(NC(=O)c3ccccc3CNC(=O)C(=O)NC[C@@H]3CCN3C#N)CC2)cc2cn(C3CC3)nc12 [Example 516]
Second: COc1cc(C2(NC(=O)c3ccccc3CNC(=O)C(=O)NC[C@@H]3CCN3)CC2)cc2cn(C3CC3)nc12 [Example 512]
The IC50 of the first is lower: < 100 nM for the first, 1000 to 10000 nM for the second. The first is the more potent here.

Compared with O=C(NC/C=C/c1cnccn1)C(=O)NCc1ccccc1C(=O)NC1(c2ccc3ccccc3c2)CC1 [Example 580], COC(=O)/C=C/CNC(=O)C(=O)NCc1ccccc1C(=O)NC1(c2ccc3ccccc3c2)CC1 [Example 43] is lower in IC50: 100 to 1000 nM for the first, < 100 nM for the second.

Compared with N#CCNC(=O)C(=O)NCc1ccccc1C(=O)NC1(c2cc(C(F)(F)F)ccc2F)CC1 [Example 371], N#CCNC(=O)C(=O)NCc1ccccc1C(=O)NC1(c2cc(-c3ccccc3)cc(C(F)(F)F)c2)CC1 [Example 468] is lower in IC50: 1000 to 10000 nM for the first, 100 to 1000 nM for the second. The second is the more potent here.

Cn1cc2cc(C3(NC(=O)c4ccccc4CNC(=O)C(=O)NCC#Cc4ccc(Cl)cc4F)CC3)ccc2n1 [Example 148] and C[C@@H](C#Cc1ccc(Cl)cc1C#N)NC(=O)C(=O)NCc1ccccc1C(=O)NC1(c2ccc3nn(C)cc3c2)CC1 [Example 113] cannot be ordered by IC50: < 100 nM for the first, < 100 nM for the second.

CN(C(=O)c1cc(Cl)cc(C2(NC(=O)c3ccccc3CNC(=O)C(=O)NCC#N)CC2)c1)c1ccc(F)cc1 [Example 78] and Cc1nnc(-c2cc(Cl)cc(C3(NC(=O)c4ccccc4CNC(=O)C(=O)NCC#N)CC3)c2)o1 [Example 483] fall in the same range of IC50: 100 to 1000 nM for the first, 100 to 1000 nM for the second.

First: Cn1cc(C#CCNC(=O)C(=O)NCc2ccccc2C(=O)NC2(c3ccc4ccccc4c3)CC2)cn1 [Example 169]
Second: O=C(NCC#Cc1ccc2c(c1)CNC2=O)C(=O)NCc1ccccc1C(=O)NC1(c2ccc3ccccc3c2)CC1 [Example 410]
The IC50 of the first is higher: > 10000 nM for the first, 100 to 1000 nM for the second. The second is the more potent here.

First: CCCOC(=O)/C=C/CNC(=O)C(=O)NCc1ccccc1C(=O)NC1(c2cccc3ccccc23)CC1 [Example 552]
Second: CC(C)(C)OC(=O)N1CC[C@@H](CNC(=O)C(=O)NCc2ccccc2C(=O)NC2(c3cccc4ccccc34)CC2)C1 [Example 507]
The IC50 of the first is lower: 100 to 1000 nM for the first, > 10000 nM for the second.

First: C#CCNC(=O)C(=O)NCc1ccccc1C(=O)NC1(c2cc(Oc3cccc(OC)c3)cc(C(F)(F)F)c2)CC1 [Example 63]
Second: C[C@@H](C#Cc1ccc([S+](C)[O-])cc1)NC(=O)C(=O)NCc1ccccc1C(=O)NC1(c2ccc3nn(C)cc3c2)CC1 (some centres unmarked) [Example 111]
The IC50 of the first is higher: > 10000 nM for the first, 1000 to 10000 nM for the second.
